Experiment: Plasma pharmacokinetics of co-administered aspirin (100 mg qd)/salicylic acid, clopidogrel (300 mg then 75 mg qd), ticagrelor (180 mg then 90 mg bid)/AR-C124910XX with SHR2285 or placebo
Procedure: For group A, the dosing regimen was aspirin + clopidogrel + placebo or SHR2285 200 mg. Specifically, aspirin: 100 mg was taken orally every morning from day 1 to day 6; clopidogrel: 300 mg in the morning of the first day, 75 mg in the morning of the second day to the sixth day; placebo or SHR2285 (1:3): 200 mg orally every morning and evening until the morning of the sixth day.
For group B, the dosing regimen was aspirin + clopidogrel + placebo or SHR2285 300 mg. The use of aspirin and clopidogrel was the same as that of group A; Placebo or SHR2285: added the amount to 300 mg based on group A.
For group C, the administration regimen was aspirin + ticagrelor + placebo or SHR2285 300 mg. The use of aspirin, placebo or SHR2285 was the same as that in group B. Clopidogrel in group B was adjusted to ticagrelor: 180 mg orally in the morning of the first day, 90 mg in the morning and evening from the second day to the morning of the sixth day.
PK blood collection points: the blood of each group was collected in the morning of day 1 before administration (within 1 h before administration), 4 h and 12 h after administration (before administration in the evening); in the morning of day 3, day 4, and day 5 before administration (within 1 h before administration), within 1 h before administration on the morning of the sixth day, and 0.5 h, 1 h, 1.5 h, 2 h, 2.5 h, 3 h, 4 h, 5 h, 6 h, 8 h, 10 h, 12 h, 15 h, 24 h, 36 h, and 48 h after administration. About 7 ml of venous blood was collected, and the plasma was collected for concentration determination of aspirin and its active metabolites (salicylic acid) and clopyridine (group A, group B), ticagrelor and its active metabolite AR-C124910XX (group C), SHR2285 and its active metabolite SHR164471.
Based on the actual sampling time, the PK parameters of each component were calculated as a non-compartmental model by WinNonlin (Certara United States Inc, version 8.1). The pharmacokinetic parameters after multiple administrations were investigated: Cmax, AUCtau, AUC0-last, AUC0-inf, Tmax, t1/2, CLss/F, Vss/F, Ctrough and Caverage. The main pharmacokinetic parameters such as AUC0-last, AUC0-inf and Cmax were tabulated and summarized by descriptive statistics.
After logarithmic conversion, the AUCss and Cmax of each component in the SHR2285 group (aspirin + clopidogrel/ticagrelor + SHR2285) and placebo group (aspirin + clopidogrel/ticagrelor + placebo) were statistically analyzed by ANOVA model. The medication group was used as the independent variable. The geometric mean ratio of the corresponding PK parameter (SHR2285/placebo group) and the estimated value of its 90% confidence interval was obtained by taking the exponential conversion from the mean difference estimated by the model (SHR2285 group-placebo group) and its 90% confidence interval. SHR2285 and its metabolite SHR164471, aspirin/salicylic acid, clopidogrel, ticagrelor and its metabolite AR-C124910XX were determined by Frontage Laboratories Co., Ltd. (Shanghai, China) using high-performance liquid chromatography-tandem mass spectrometry (HPLC-MS, Sciex API 4000). The chromatographic column is WATERS CORTECS®T3 (50 mm × 4.6 mm, id 2.7 μm), column temperature is set at 40°C. Mobile phase A is ultrapure water (containing 0.1% formic acid), and mobile phase B is acetonitrile/water (90:10, containing 0.1% formic acid). The elution gradient is: 0–0.4 min, A-B (50:50), 0.4–0.8 min, A-B (5:95), 0.8–2 min, A-B (5:95), 2–2.4 (50:50), 2.4–3.5 min, A-B (50:50). The total time was 3.5 min and the flow rate was 1.0 ml/min. The ion source was ESI source at positive ion mode. The heating capillary temperature was 400°C; CAD was nine; curtain gas was 30; GS1 (N2) was 50; GS2 (N2) was 50; The method used was multiple reaction monitoring (MRM), and the ion reactions used for quantitative analysis were m/z 545.1→408.0 (SHR2285) and m/z 721.2→408.1 (SHR164471), respectively.

[1] = Placebo (C) n=8: aspirin + ticagrelor + placebo, day 6
[2] = SHR2285 (C) n=12: aspirin + ticagrelor + SHR2285 300 mg bid, day 6

Q: Which AUCtau [1] does the source give for `CCCSc1nc(N[C@@H]2C[C@H]2c2ccc(F)c(F)c2)c2nnn([C@@H]3C[C@H](O)[C@@H](O)[C@H]3O)c2n1` [AR-C124910XX] here?
A: 2490(38.3) h*ng/mL

Q: And the Cmax [1]?
A: 389(35.4) ng/ml

Q: What about the Tmax (Placebo (C) n=8: aspirin + ticagrelor + placebo, day 6, median (range)) of the same compound?
A: 1.5(1.0-2.5) h

Q: And the AUCtau [2]?
A: 2280(26.4) h*ng/mL

Q: What about the Cmax [2] of the same compound?
A: 367(28.1) ng/ml

Q: And the Tmax (SHR2285 (C) n=12: aspirin + ticagrelor + SHR2285 300 mg bid, day 6, median (range))?
A: 1.75(1.5-2.5) h

Q: And the “steady state in plasma” value (group C, six days after administration of ticagrelor)?
A: reached a steady state

Q: What about the Tmax (range across SHR2285 and placebo groups, day 6) of the same compound?
A: 1.5 to 1.75 h

Q: With `COC(=O)[C@H](c1ccccc1Cl)N1CCc2sccc2C1` [Clopidogrel, clopidogrel] as the compound, how does the Tmax (human, in vivo) read?
A: one to 1.5

Q: Which “GLSMR of AUCtau (SHR2285 group/placebo group)” value (human, in vivo) does the source give for `CCCSc1nc(N[C@@H]2C[C@H]2c2ccc(F)c(F)c2)c2nnn([C@@H]3C[C@H](OCCO)[C@@H](O)[C@H]3O)c2n1` [Ticagrelor, ticagrelor] here?
A: 0.929

Q: What about the “GLSMR of Cmax (SHR2285 group/placebo group)” value (human, in vivo) of the same compound?
A: 1.06

Q: What about the Tmax (human, in vivo, Tmax) of the same compound?
A: 1.5 to 1.75 h

Q: What about the “steady state in plasma” value (in vivo) of the same compound?
A: reached a steady state
